Blank lines part the entries; values can stand above or below the molecule they belong to.
Tests used:
[1] = biological target: Muscarinic acetylcholine receptor M3 (Homo sapiens, UniProt P20309); assay: Antagonist activity at human muscarinic M3 receptor expressed in PathHunter U2OS CHRM3 beta-arrestin cells preincubated for 30 mins followed by agonist addition at 6 times EC80 and measured after 90 to 180 mins by PathHunter assay; assay type: functional, cell-based
[2] = biological target: Voltage-gated inwardly rectifying potassium channel KCNH2 (Homo sapiens, UniProt Q12809); assay: Inhibition of hERG in HEK293 cells measured after 5 mins by patch-clamp assay
Chain of Voltage-gated inwardly rectifying potassium channel KCNH2 (Q12809 whole entry): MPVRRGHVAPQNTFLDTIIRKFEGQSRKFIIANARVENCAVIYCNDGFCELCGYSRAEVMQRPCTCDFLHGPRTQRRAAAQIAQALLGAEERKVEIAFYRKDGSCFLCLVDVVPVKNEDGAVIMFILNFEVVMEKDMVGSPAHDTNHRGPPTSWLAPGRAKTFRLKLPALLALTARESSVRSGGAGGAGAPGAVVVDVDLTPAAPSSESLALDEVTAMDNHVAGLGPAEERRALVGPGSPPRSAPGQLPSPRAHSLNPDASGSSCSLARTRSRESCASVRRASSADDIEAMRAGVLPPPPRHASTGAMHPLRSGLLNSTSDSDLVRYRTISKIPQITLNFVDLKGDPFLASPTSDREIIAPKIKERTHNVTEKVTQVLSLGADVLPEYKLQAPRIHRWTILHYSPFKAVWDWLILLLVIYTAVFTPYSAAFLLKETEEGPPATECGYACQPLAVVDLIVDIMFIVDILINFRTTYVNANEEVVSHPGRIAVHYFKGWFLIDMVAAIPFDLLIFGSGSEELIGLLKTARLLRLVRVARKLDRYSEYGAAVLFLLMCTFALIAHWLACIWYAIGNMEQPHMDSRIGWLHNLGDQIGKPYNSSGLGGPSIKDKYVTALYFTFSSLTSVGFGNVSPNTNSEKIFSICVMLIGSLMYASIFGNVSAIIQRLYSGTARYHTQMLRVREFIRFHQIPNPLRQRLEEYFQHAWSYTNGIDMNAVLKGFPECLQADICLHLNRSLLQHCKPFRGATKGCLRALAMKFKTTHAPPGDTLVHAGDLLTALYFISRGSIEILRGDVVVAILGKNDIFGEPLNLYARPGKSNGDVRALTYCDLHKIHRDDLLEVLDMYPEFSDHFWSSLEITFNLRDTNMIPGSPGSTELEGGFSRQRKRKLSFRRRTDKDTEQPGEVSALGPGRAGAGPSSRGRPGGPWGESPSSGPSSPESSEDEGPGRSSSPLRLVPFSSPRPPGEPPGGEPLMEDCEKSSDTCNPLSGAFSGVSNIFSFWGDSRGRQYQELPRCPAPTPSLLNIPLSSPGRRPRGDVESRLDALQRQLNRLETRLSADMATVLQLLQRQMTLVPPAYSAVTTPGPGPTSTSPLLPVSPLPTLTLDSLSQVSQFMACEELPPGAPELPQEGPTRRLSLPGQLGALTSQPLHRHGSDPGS

[3] = Cmax in female Sprague-Dawley rat brain at 10 mg/kg, IG administered as single dose; assay type: ADME, organism-based; settings: po
[4] = Cmax in female Sprague-Dawley rat plasma at 10 mg/kg, IG administered as single dose; assay type: ADME, organism-based; settings: po
[5] = Cmax in male Sprague-Dawley rat brain at 10 mg/kg, IG administered as single dose; assay type: ADME, organism-based; settings: po
[6] = Cmax in male Sprague-Dawley rat plasma at 10 mg/kg, IG administered as single dose; assay type: ADME, organism-based; settings: po
[7] = Apparent permeability across basolateral to apical side in human Caco-2 cells at 5 uM measured at 60 mins; assay type: ADME, cell-based
[8] = Efflux ratio of apparent permeability across basolateral to apical over apical to basolateral side in human Caco-2 cells at 5 uM measured at 60 mins; assay type: ADME, cell-based
[9] = Apparent permeability across apical to basolateral side in human Caco-2 cells at 5 uM measured at 60 mins; assay type: ADME, cell-based

Chain of Muscarinic acetylcholine receptor M3 (P20309 whole entry): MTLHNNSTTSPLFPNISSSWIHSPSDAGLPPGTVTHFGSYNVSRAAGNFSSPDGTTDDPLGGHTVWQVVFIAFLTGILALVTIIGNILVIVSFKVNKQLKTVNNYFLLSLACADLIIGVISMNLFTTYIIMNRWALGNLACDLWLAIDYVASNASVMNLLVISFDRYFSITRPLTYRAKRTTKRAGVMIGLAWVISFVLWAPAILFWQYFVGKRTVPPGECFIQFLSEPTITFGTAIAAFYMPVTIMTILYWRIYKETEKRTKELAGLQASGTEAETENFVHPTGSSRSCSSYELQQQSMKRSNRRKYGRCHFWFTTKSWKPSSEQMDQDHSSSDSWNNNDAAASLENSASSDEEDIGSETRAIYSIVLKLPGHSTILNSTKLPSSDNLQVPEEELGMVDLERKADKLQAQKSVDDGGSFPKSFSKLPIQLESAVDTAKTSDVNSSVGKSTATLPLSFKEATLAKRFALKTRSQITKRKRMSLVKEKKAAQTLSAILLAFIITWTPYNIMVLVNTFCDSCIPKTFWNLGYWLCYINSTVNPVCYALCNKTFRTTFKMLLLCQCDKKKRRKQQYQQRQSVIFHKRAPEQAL

Structure (SMILES): CC(C)(C(=O)O)c1ccc(CCCN2CCC(=C3c4ccc(Cl)cc4CCc4cccnc43)CC2)c(F)c1
IC50 [2]: 30.1 µM | IC50 [1]: > 10 µM

Structure (SMILES): Clc1ccc2c(c1)CCc1cccnc1C2=C1CCNCC1 [DESLORATADINE]
Cmax [3]: 1180 ng/g | Cmax [4]: 549 ng/g | Cmax [5]: 843 ng/g | Cmax [6]: 112 ng/g

Structure (SMILES): CC(C)NCC(O)COc1cccc2ccccc12 (stereo unspecified) [PROPRANOLOL]
Papp B→A at 1 h, 5 µM [7]: 20.5 ×10⁻⁶ cm/s | efflux ratio at 1 h, 5 µM [8]: 0.59 | Papp A→B at 1 h, 5 µM [9]: 34.8 ×10⁻⁶ cm/s

Second part, led by results:

IC50 [1]: > 10 µM
Structure (SMILES): CC(C)(C(=O)O)c1cccc(NCCN2CCC(=C3c4ccc(Cl)cc4CCc4cccnc43)CC2)c1

IC50 [1]: > 10 µM
Structure (SMILES): CC(C)(C(=O)O)c1ccc(CN2CCC(=C3c4ccc(Cl)cc4CCc4cccnc43)CC2)cc1
IC50 [2]: 18.4 µM

IC50 [1]: > 10 µM
Structure (SMILES): CC(C)(C(=O)O)c1ccc(CCCN2CCC(=C3c4ccc(Cl)cc4CCc4cccnc43)CC2)nc1

IC50 [1]: > 10 µM
Structure (SMILES): NC(=O)c1cn(CCN2CCC(=C3c4ccc(Cl)cc4CCc4cccnc43)CC2)nn1
IC50 [2]: 6.36 µM

IC50 [1]: > 10 µM
Structure (SMILES): CC(C)(C(=O)O)c1ccccc1CCCN1CCC(=C2c3ccc(Cl)cc3CCc3cccnc32)CC1
